Relative potency, EC50 and Max data for 10 molecules are collected here from ChEMBL document CHEMBL1126484, “Backbone modified formyl-methionyl tripeptide chemoattractants” (1993).

Format in all cases: functional
The species entered for test [1] is Oryctolagus cuniculus. The test is described as follows: Relative potency with respect to HCO-L-Met-L-Leu-L-Phe-OMe (1) was determined.
The species entered for test [2] is Oryctolagus cuniculus. The test is described as follows: Effective dose to induce the secretion of beta-glucosaminidase from cytochalasin beta-treated rabbit peritoneal polymorphonuclear leukocytes (neutrophils). As to conditions: read-out: ED50 (the source's name).
The species named for test [3] is Oryctolagus cuniculus. The test is described as follows: Maximum percentage induction of the secretion of beta-glucosaminidase from cytochalasin beta-treated rabbit peritoneal polymorphonuclear leukocytes (neutrophils).

SMILES strings stand for the structures. Where a SMILES comes first, the peptide text is derived from it.

On to `COC(=O)[C@H](Cc1ccccc1)NC(=O)[C@@](C)(NC(=O)[C@H](CCSC)NC=O)C(C)C`, for which, in the test filed under Oryctolagus cuniculus [1], the Relative potency was 2.5. In addition, the EC50 in the test filed under Oryctolagus cuniculus [2] is 0.027 nM. This molecule also showed a Max in the test filed under Oryctolagus cuniculus [3] of 32%.

In the test listed under Oryctolagus cuniculus [1], `CC[C@](C)(NC(=O)[C@H](CCSC)NC=O)C(=O)N[C@@H](Cc1ccccc1)C(=O)OC` showed a Relative potency of 0.4. Moreover, the EC50 in the test listed under Oryctolagus cuniculus [2] is 0.17 nM. This molecule yielded a Max in the test listed under Oryctolagus cuniculus [3] of 32%.

For the molecule `COC(=O)[C@H](Cc1ccccc1)NC(=O)[C@H](CC(C)C)NC(=O)[C@H](CCSC)NC=O`, the EC50 in the test filed under Oryctolagus cuniculus [2] turned out to be 0.068 nM. Also, in the test listed under Oryctolagus cuniculus [3], the Max is given as 42%.

In the test filed under Oryctolagus cuniculus [1], `COC(=O)[C@H](Cc1ccccc1)NC(=O)[C@@H](CC(C)C)NC(=O)[C@H](CCSC)NC=O` showed a Relative potency of 0.0019. For the same molecule, the EC50 in the test filed under Oryctolagus cuniculus [2] amounted to 36 nM. Also, the Max in the test listed under Oryctolagus cuniculus [3] came to 38%.

The molecule `COC(=O)[C@H](Cc1ccccc1)NC(=O)[C@@](C)(CC(C)C)NC(=O)[C@H](CCSC)NC=O` came in with a Relative potency in the test listed under Oryctolagus cuniculus [1] of 1.3. Further, the EC50 in the test filed under Oryctolagus cuniculus [2] turned out to be 0.052 nM. This molecule also gave a Max in the test listed under Oryctolagus cuniculus [3] of 42%.

In turn, `COC(=O)[C@H](Cc1ccccc1)NC(=O)[C@](C)(NC(=O)[C@H](CCSC)NC=O)C(C)C` displayed a Relative potency in the test listed under Oryctolagus cuniculus [1] of 0.62. Also, in the test filed under Oryctolagus cuniculus [2], the EC50 was determined as 0.11 nM. Besides, in the test listed under Oryctolagus cuniculus [3], the Max came to 38%.

Turning to `CC[C@@](C)(NC(=O)[C@H](CCSC)NC=O)C(=O)N[C@@H](Cc1ccccc1)C(=O)OC`, the Relative potency in the test listed under Oryctolagus cuniculus [1] stood at 0.14. Also, the EC50 in the test listed under Oryctolagus cuniculus [2] came out at 0.48 nM. Also, the Max in the test listed under Oryctolagus cuniculus [3] is listed as 42%.

As for `CSCC[C@H](NC=O)C(=O)N[C@@H](CC(C)C)C(=O)N[C@@H](Cc1ccccc1)C(=O)O`, the Relative potency in the test filed under Oryctolagus cuniculus [1] was determined as 0.52. Also, in the test listed under Oryctolagus cuniculus [2], the EC50 came to 0.13 nM. The molecule also showed a Max in the test listed under Oryctolagus cuniculus [3] of 37%.

`COC(=O)[C@H](Cc1ccccc1)NC(=O)[C@](C)(CC(C)C)NC(=O)[C@H](CCSC)NC=O` gave a Relative potency in the test filed under Oryctolagus cuniculus [1] of 2.5. For the same molecule, the EC50 in the test filed under Oryctolagus cuniculus [2] turned out to be 0.027 nM. The molecule further showed a Max in the test listed under Oryctolagus cuniculus [3] of 42%.

In the test filed under Oryctolagus cuniculus [1], `COC(=O)[C@H](Cc1ccccc1)NC(=O)C(C)(C)NC(=O)[C@H](CCSC)NC=O` (HELM PEPTIDE1{[O=C[*:2]].M.[Aib].F.[CO[*:1]]}$$$$V2.0) returned a Relative potency of 0.049. The EC50 in the test listed under Oryctolagus cuniculus [2] was determined as 1.4 nM. Further, the Max in the test listed under Oryctolagus cuniculus [3] is listed as 39%.
